From patent publication US20240269144A1, “METHODS AND KITS FOR THE DETECTION OF MALIGNANCIES” (H. LEE MOFFITT CANCER CENTER AND RESEARCH INSTITUTE, INC., priority 2021, published 2024)
Like-named read-outs stand apart in the source and are kept apart here.

Key:
malignant T cells = experiment: EVOS drug assay (Cytolight Rapid Green / Cytox Red) on malignant T cells; type: cell-based
Description: FIGS. 9A, 9B, 9C, and 9D show the effects various anti-cancer agents on malignant T cells. Cells are stained green with the Cytolight Rapid Green Dye—freely pass thru the membrane, however, once inside the dye is transformed into cell-impermeant probe transferred to daughter cells. Once the cells have been stained the dye is removed. Stains live cells. Then the Cytox Red is added and left in the media. Cytox Red moves inside the cells when the cell membrane is compromised. Assays were read at 0, 6, 12, 18 and 24 hrs. Each timepoint is analyzed separately for the designated concentration of Palbociclib (CDK4/6 inhibitor)(9A), Omacetaxine mepesuccinate (HHT)(9B), CX5461 (rRNA synthesis inhibitor)(9C), or BTZO-1 (MIF inhibitor)(9D).
To see the effect of various inhibitors on malignant T cells, we an EVOS drug assay (FIG. 9) measuring varying concentrations and time points for Palbociclib (CDK4/6 inhibitor)(FIG. 9A), Omacetaxine mepesuccinate (HHT)(FIG. 9B), CX5461 (rRNA synthesis inhibitor)(FIG. 9C), and BTZO-1 (MIF inhibitor)(FIG. 9D). By 12 hours, killing of malignant T cells was observed reaching a maximum for all drugs by […].

[1] = system: T-cell lymphoma lines Myla (MF), HH (MF—leukemic phase), Hu78 (SS); experiment: OXPHOS inhibitor apoptosis assay (Annexin V/PI), T-cell lymphoma cell lines; type: cell-based
[2] = system: acute myeloid leukemia and mantle cell lymphoma tumor cells; conditions: pre-clinical models of acute myeloid leukemia and mantle cell lymphoma; cited from earlier work
[3] = system: T-cell lymphoma lines Myla (MF), HH (MF—leukemic phase), Hu78 (SS)
Description: MYC inhibitor (MYCi975) cell proliferation assay (right). Indicated cell lines were seeded on 96-well plates and treated with different dose of MYCi975 for 5 days. At day 5, cells were incubated with MTS reagent following manufacture's protocol (Promega Cat #G3580). Absorbance at OD490 nm was recorded and percentage of growth were normalized to vehicle control. Half maximal inhibitory concentration (IC50) was calculated based on curve fitting result using non-linear regression function of GraphPad Prism 8. The symbol represents the mean. The error bars represent the mean±s.e.m. n=12 (MyLa and Jurkat); n=8 (HH, MJ, Hu78).
To determine the sensitivity of CTCL and other T cell lymphomas to OXPHOS and MYC inhibition, we performed pharmacologic perturbation assays using IACS10759 and MYCi975 in MF and other TCL cell lines (FIG. 4F).
Established T-cell lymphoma lines were used for drug assays, including Myla (MF; Sigma Aldrich Cat #95051032), HH (MF—leukemic phase; ATCC Cat #CRL-2105), and Hu78 (SS; ATCC Cat #TIB-161), Jurkat (ATLL) and MJ (ATLL; ATCC Cat #8294).

MYC = MYC (Homo sapiens, UniProt P01106); conditions: cited from earlier work
CTCL = conditions: MAVORIC trial, cited from earlier work
[4] = malignant T cells, at maximum killing
[5] = in vitro pharmacologic studies, CTCL cell lines

Sequence of MYC (P01106 whole entry, species assumed): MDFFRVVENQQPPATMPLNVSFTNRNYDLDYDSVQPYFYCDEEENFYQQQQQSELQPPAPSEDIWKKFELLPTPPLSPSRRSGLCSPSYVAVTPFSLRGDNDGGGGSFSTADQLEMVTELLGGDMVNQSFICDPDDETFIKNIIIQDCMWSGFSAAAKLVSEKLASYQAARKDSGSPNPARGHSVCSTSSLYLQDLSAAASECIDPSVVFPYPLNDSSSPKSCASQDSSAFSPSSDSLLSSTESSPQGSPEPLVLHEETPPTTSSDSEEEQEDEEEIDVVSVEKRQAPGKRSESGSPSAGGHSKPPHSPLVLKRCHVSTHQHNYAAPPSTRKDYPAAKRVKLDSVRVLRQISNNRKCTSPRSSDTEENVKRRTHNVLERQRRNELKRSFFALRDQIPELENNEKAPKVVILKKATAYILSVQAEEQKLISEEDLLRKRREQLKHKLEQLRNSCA

With `O=c1nc(-c2ccccn2)sc2ccccc12` [BTZO-1] the “target cells remaining viable after treatment” value (“target cells remaining viable” for short) (malignant T cells) was 50%.

In the case of `Cc1cnc(CNC(=O)c2c(=O)c3ccc(N4CCCN(C)CC4)nc3n3c2sc2ccccc23)cn1` [CX5461], the “target cells remaining viable” value (malignant T cells; [4]) is reported as 60-70%.

In the case of `COC(=O)C[C@](O)(CCCC(C)(C)O)C(=O)O[C@@H]1C(OC)=C[C@]23CCCN2CCc2cc4c(cc2[C@H]13)OCO4` [HHT, Omacetaxine mepesuccinate], the “target cells remaining viable” value (malignant T cells; [4]) is reported as 50%.

In the case of `Cc1nc(-c2nc(-c3ccc(OC(F)(F)F)cc3)no2)nn1Cc1cccc(N2CCC(S(C)(=O)=O)CC2)c1` [IACS-010759], the “sensitivity to IACS-010759 as assessed by apoptosis” value ([1]; Myla, HH, Hu78, particularly for Myla, 8 nM, 5 days, Annexin V+PI+) is given as “low nanomolar sensitivity”, the “anti-tumor activity in vitro (OXPHOS inhibitor)” value [1, 5] is given as “potent anti-tumor activity” and the “effect of OXPHOS inhibition on tumor cells” value [2] is given as “inhibition of tumor cell proliferation and induction of apoptosis”.

For `Cn1nc(C(F)(F)F)cc1-c1ccc(OCc2ccc(Cl)cc2)c(-c2ccc(Cl)c(C(F)(F)F)c2)c1O` [MYCi975], the “sensitivity to MYCi975 as assessed by cell proliferation, cell viability and cytotoxicity (MTS assay)” value [3] is given as “low micromolar sensitivity”, the “anti-tumor activity in vitro (MYC inhibitor)” value [3, 5] is given as “potent anti-tumor activity” and the “preclinical in-vivo activity against MYC” value (MYC) is given as “potent preclinical in-vivo activity against MYC”.

With `CC(=O)c1c(C)c2cnc(Nc3ccc(N4CCNCC4)cn3)nc2n(C2CCCC2)c1=O` [Palbociclib] the “target cells remaining viable” value (malignant T cells; [4]) was 50%.

B1: mogamulizumab: anti-CCR4, FDA approved breakthrough therapy for CTCL (antibody, chains of the INN, looked up, V domains shown)
VH: EVQLVESGGDLVQPGRSLRLSCAASGFIFSNYGMSWVRQAPGKGLEWVATISSASTYSYYPDSVKGRFTISRDNAKNSLYLQMNSLRVEDTALYYCGRHSDGNFAFGYWGQGTLVTVSS
VL: DVLMTQSPLSLPVTPGEPASISCRSSRNIVHINGDTYLEWYLQKPGQSPQLLIYKVSNRFSGVPDRFSGSGSGTDFTLKISRVEAEDVGVYYCFQGSLLPWTFGQGTKVEIK
For B1, the “responses in blood, % of patients” value (CTCL; blood compartment) is given as 49.2%, the “responses in skin, % of patients” value (CTCL; skin compartment) is given as 27.4% and the ORR (CTCL; mogamulizumab monotherapy, at ≥4 months (b5), at 4 months) is given as 25.3%. For the same molecule, the “median PFS” value (CTCL; mogamulizumab monotherapy) was 7.8 months.
